Experimental data reported in US4489061A, “Treatment of male mammals” (The Salk Institute for Biological Studies, priority 1982, dated 1984).
Where a SMILES comes first, the peptide text is derived from it. [ ]: non-standard residue; d: D form. dPhe(4-Cl) = N[C@H](Cc1ccc(Cl)cc1)C(=O)O; NMeL = CN[C@@H](CC(C)C)C(=O)O; pGlu = O=C1CC[C@@H](C(=O)O)N1; ΔPro = O=C(O)[C@@H]1C=CCN1

Legend:
male rats = assay: 14-day daily injection in male rats: gonadal function, hormones, androgen-dependent behavior, fertility and recovery; type: in vivo, rat; details: 1 milligram daily for 14 days
Source text: The peptide is used at a level effective to reduce testes and seminal vesicles weights and also to inhibit spermatogenesis after a 14-day administration to male rats. […] Prostate weights of male rats recover in 2-3 weeks and seminal vesicles weights in 4-5 weeks. It is preferred to use dosage levels in the range of from about 0.1 to about 1 milligram per rat per day, which can be administered without detrimental side effects.
(§1) Male rats (about 320 grams each) are each treated with 1 milligram of the peptide synthesized in Example I, once a day, for 14 days by injection in 0.2 ml. of corn oil. All the rats show a decrease in testes and seminal vesicles weight, spermatogenesis and plasma androgen levels.
Full recovery of testes and seminal vesicle weights, androgen-dependent behavior and spermatogenesis ultimately occurs following cessation of the 14-day peptide administration. […] Fertility, as assessed by the ability to impregnate females, is restored in all of the rats which have not been sacrificed within 6 weeks after cessation of the injections.
as §1, with “A first group (I) of male” for “Male”, “Peptide A” for “the peptide”, “III, every day” for “I, once a day,”, “days,” for “days”, “levels. […]” for “levels.”

[1] = tested on: release of gonadotropins by the pituitary gland; details: versus [des His2]-LRF; cited from earlier work

Molecule | side effects / damage (male rats) | potency as inhibitor of the release of gonadotropins, relative to the same peptide with Gly in the 6-position [1]
CC(=O)N1CC=C[C@H]1C(=O)N[C@H](Cc1ccc(Cl)cc1)C(=O)N[C@H](Cc1c[nH]c2ccccc12)C(=O)N[C@@H](CO)C(=O)N[C@@H](Cc1ccc(O)cc1)C(=O)N[C@H](Cc1c[nH]c2ccccc12)C(=O)N(C)[C@@H](CC(C)C)C(=O)N[C@@H](CCCNC(=N)N)C(=O)N1CCC[C@H]1C(=O)NCC(N)=O [Example I, [Ac-dehydro Pro^1, pCl--D--Phe^2, D--Trp^3,6, NαMeLeu^7]-LRF] (Ac-[ΔPro][dPhe(4-Cl)][dW]SY[dW][NMeL]RPG-NH2) | without harmful side effects or irreversible damage | 
[pGlu]WSY[dA]LRPG-NH2 [[des His^2, D-Ala^6]-LRF] |  | 3 times more potent
